Source: patent publication US8426447B2, “Spiro-tricyclic ring compounds as beta-secretase modulators and methods of use” (Amgen Inc., priority 2008, dated 2013)

What was measured:
[1] = target: T1, BACE1 (Homo sapiens, UniProt P56817); assay: In Vitro BACE Cell-based Assay (HEK cell assay): Aβ40 in conditioned medium of cells stably expressing Amyloid Precursor Protein, sandwich ELISA; details: read-out: HEK cell assay
Outline: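 Conditioned medium Aβ40 by ELISA: pAb40 capture 3 h 4° C., biotin-6E10 detection 2 h 4° C., Streptavidin-Europium TRF. IC50 fitted from % control.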

[2] = target: T1, BACE1; assay: In Vitro Enzymatic BACE FRET (Fluorescence Resonance Energy Transfer) Assay; type: biochemical; details: read-out: BACE1 FRET assay
Outline: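 One-hour incubation initiated by 50 nM quenched FRET peptide spanning the BACE cleavage site, in 0.05 M acetate (pH 4.2), 100 uM genapol, 10% DMSO final. Tris addition neutralizes pH to end the reaction before fluorescence measurement.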

[3] = HEK cell-based assay, Aβ40 in conditioned medium, IC50 class symbols
[4] = in vitro BACE FRET enzyme assay, IC50 class symbols
[5] = Table II, Aβ40, 24 h incubation

T1 sequence (P56817 46-501, species assumed): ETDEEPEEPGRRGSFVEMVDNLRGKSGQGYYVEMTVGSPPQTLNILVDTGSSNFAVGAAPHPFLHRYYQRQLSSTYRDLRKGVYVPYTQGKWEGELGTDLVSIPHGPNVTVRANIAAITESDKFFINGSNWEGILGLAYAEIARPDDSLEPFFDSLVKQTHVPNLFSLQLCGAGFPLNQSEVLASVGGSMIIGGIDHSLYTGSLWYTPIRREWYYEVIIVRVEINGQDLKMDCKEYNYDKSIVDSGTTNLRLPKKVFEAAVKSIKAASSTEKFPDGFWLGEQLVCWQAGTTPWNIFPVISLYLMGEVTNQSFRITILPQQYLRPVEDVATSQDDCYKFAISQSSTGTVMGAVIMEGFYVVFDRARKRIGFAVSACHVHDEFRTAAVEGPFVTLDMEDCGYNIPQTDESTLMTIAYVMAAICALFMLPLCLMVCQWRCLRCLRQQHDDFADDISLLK

NC1=N[C@@]2(CO1)c1cc(-c3cccnc3)ccc1Oc1cnc(C3=CCCCC3)cc12 [compound 848]
IC50 ([1]; Table IV, class symbols): < 0.1 µM | IC50 ([2]; Table IV, class symbols): < 0.1 µM

NC1=N[C@@]2(CO1)c1cc(-c3ccc(F)nc3)ccc1Oc1cnc(-c3ccc(F)nc3)cc12 [compound 433]
IC50 ([1]; HEK cells): 0.1 to 1 µM | IC50 [2]: < 0.1 µM

NC1=N[C@@]2(CO1)c1cc(-c3cccnc3)ccc1Oc1ccc(Cl)nc12 [compound 393]
IC50 [1, 3]: 1 to 5 µM | IC50 [2, 4]: 0.1 to 1 µM

Cn1cc(-c2ccc3c(c2)[C@]2(COC(N)=N2)c2cc(Br)ccc2O3)cn1 [compound 638]
IC50 ([1]; Table IV, class symbols): 1 to 5 µM | IC50 ([2]; Table IV, class symbols): 0.1 to 1 µM

NC1=NC2(CO1)c1cc(-c3cccnc3)ccc1Oc1ccc(-c3cccnc3)cc12 [Example 123, 2′,7′-di(pyridin-3-yl)-5H-spiro[oxazole-4,9′-xanthen]-2-amine]
IC50 ([1]; Table III, IC50's in uM ranges): < 0.1 µM | IC50 ([2]; Table III, IC50's in uM ranges): < 0.1 µM

CC(C)(C)COc1ccc2c(c1)[C@@]1(COC(N)=N1)c1cc(-c3ccccc3)cnc1O2 [compound 807]
IC50 ([1]; Table IV, class symbols): < 0.1 µM | IC50 ([2]; Table IV, class symbols): < 0.1 µM

COC(C)(C)C#Cc1ccc2c(c1)[C@]1(COC(N)=N1)c1cc(-c3cccnc3)cnc1O2 [208b]
IC50 ([1]; Table III, IC50's in uM ranges): < 0.1 µM | IC50 ([2]; Table III, IC50's in uM ranges): < 0.1 µM

CC(C)(C)CCOc1nccc2c1C1(COC(N)=N1)c1cc(-c3cncnc3)ccc1O2 (centres unmarked) [Example 109, 1-(3,3-Dimethylbutoxy)-8-(pyrimidin-5-yl)-5′H-spiro[chromeno[3,2-c]pyridine-10,4′-oxazol]-2′-amine]
IC50 ([1]; Table III, IC50's in uM ranges): 0.1 to 1 µM | IC50 ([2]; Table III, IC50's in uM ranges): 0.1 to 1 µM

COc1ccc2c(c1)[C@]1(COC(N)=N1)c1cc(C#CC(C)(C)C)cnc1O2 [compound 904]
IC50 ([1]; Table IV, class symbols): 0.1 to 1 µM | IC50 ([2]; Table IV, class symbols): > 5 µM

NC1=N[C@@]2(CO1)c1cc(-c3cncnc3)ccc1Oc1ccc(N3CCOC4(CCCC4)C3)cc12 [compound 462]
IC50 ([1]; HEK cells): 0.1 to 1 µM | IC50 [2]: < 0.1 µM

CC1CCN(c2cc3c(cn2)Oc2ccc(-c4cccnc4)cc2[C@@]32COC(N)=N2)CC1 [compound 441]
IC50 ([1]; HEK cells): < 0.1 µM | IC50 [2]: < 0.1 µM

CC(C)(C)C#Cc1ccc2c(c1)[C@]1(COC(N)=N1)c1nc(-c3cccnc3)ccc1O2 [compound 697]
IC50 [1]: 1 to 5 µM | IC50 [2]: 0.1 to 1 µM

NC1=N[C@@]2(CO1)c1cc(-c3cccnc3F)ccc1Oc1ccc(-c3ccncc3)nc12 [compound 402]
IC50 [1, 3]: < 0.1 µM | IC50 [2, 4]: < 0.1 µM

N#Cc1ccc(-c2ccc3c(c2)[C@]2(COC(N)=N2)c2cc(-c4cccnc4)ccc2O3)cc1 [compound 204]
IC50 ([1]; Table III, IC50's in uM ranges): < 0.1 µM | IC50 ([2]; Table III, IC50's in uM ranges): < 0.1 µM

CCCNC(=O)c1ccc2c(c1)[C@@]1(COC(N)=N1)c1cc(OCC(C)(C)C)ccc1O2 [compound 657]
IC50 ([1]; Table IV, class symbols): 0.1 to 1 µM | IC50 ([2]; Table IV, class symbols): < 0.1 µM

CC(=O)Cc1ccc2c(c1)[C@]1(COC(N)=N1)c1cc(-c3cccnc3)ccc1O2 [compound 658]
IC50 ([1]; Table IV, class symbols): 0.1 to 1 µM | IC50 ([2]; Table IV, class symbols): 0.1 to 1 µM

CC(C)(C)COc1ccc2c(c1)[C@]1(COC(N)=N1)c1cc(N3CCOCC3)ccc1O2 [Example 43, (4S)-2′-(2,2-dimethylpropoxy)-7′-(4-morpholinyl)spiro[1,3-oxazole-4,9′-xanthen]-2-amine]
IC50 [1, 5]: 0.1 to 1 µM | IC50 ([2]; Table II): 0.1 to 1 µM

COc1ccc2c(c1)[C@]1(COC(N)=N1)c1cc(-c3ccnc4ccccc34)ccc1O2 [compound 589]
IC50 ([1]; Table IV, class symbols): 1 to 5 µM | IC50 ([2]; Table IV, class symbols): 1 to 5 µM

CC(C)(C)COc1ccc2c(c1)[C@@]1(COC(N)=N1)c1cc(C(=O)N3CCCC3)ccc1O2 [compound 992]
IC50 [1]: 1 to 5 µM | IC50 [2]: 0.1 to 1 µM

CN(C)CC#Cc1ccc2c(c1)[C@@]1(COC(N)=N1)c1cc(OCC(C)(C)C)ccc1O2 [Example 89, (4S)-2′-(3-(dimethylamino)-1-propyn-1-yl)-7′-(2,2-dimethylpropoxy)spiro[1,3-oxazole-4,9′-xanthen]-2-amine]
IC50 [1, 5]: 0.1 to 1 µM | IC50 ([2]; Table II): 0.1 to 1 µM

COc1ccc2c(c1)[C@@]1(COC(N)=N1)c1cc(Br)cc(F)c1O2 [compound 406]
IC50 [1, 3]: > 5 µM | IC50 [2, 4]: > 5 µM

CC(C)(C)COc1ccc2c(c1)[C@]1(COC(N)=N1)c1cc(-c3ccc(F)nc3)cnc1O2 [compound 869]
IC50 ([1]; Table IV, class symbols): 1 to 5 µM | IC50 ([2]; Table IV, class symbols): 0.1 to 1 µM

COc1ccc2c(c1)[C@]1(COC(N)=N1)c1cc(-c3cncc4ccccc34)ccc1O2 [compound 634]
IC50 ([1]; Table IV, class symbols): 1 to 5 µM | IC50 ([2]; Table IV, class symbols): 0.1 to 1 µM

CCOC(=O)c1ccc(-c2ccc3c(c2)[C@]2(COC(N)=N2)c2cc(-c4cccnc4)ccc2O3)o1 [compound 725]
IC50 [1]: 0.1 to 1 µM | IC50 [2]: < 0.1 µM

CC(C)(C)OC(=O)N1CC=C(c2ccc3c(c2)[C@]2(COC(N)=N2)c2cc(-c4cncnc4)ccc2O3)CC1 [compound 968]
IC50 [1]: 0.1 to 1 µM | IC50 [2]: < 0.1 µM

CC(C)(C)CC(=O)c1ccc2c(c1)[C@]1(COC(N)=N1)c1cc(-c3ccc(F)nc3)ccc1O2 [150a]
IC50 ([1]; Table III, IC50's in uM ranges): 0.1 to 1 µM | IC50 ([2]; Table III, IC50's in uM ranges): < 0.1 µM

NC1=N[C@@]2(CO1)c1cc(-c3cccc(F)c3)ccc1Oc1cnc(C3=CCOCC3)cc12 [compound 485]
IC50 ([1]; HEK cells): < 0.1 µM | IC50 [2]: < 0.1 µM

NC1=N[C@@]2(CO1)c1cc(-c3cncnc3)ccc1Oc1ccc(-c3ccc(F)nc3)cc12 [compound 991]
IC50 [1]: < 0.1 µM | IC50 [2]: < 0.1 µM

CC(C)(C)CCOc1nccc2c1[C@@]1(COC(N)=N1)c1cc(-c3cccnc3)ccc1O2 [compound 931]
IC50 [1]: > 5 µM | IC50 [2]: 1 to 5 µM

CC(C)(O)C#Cc1ccc2c(c1)C1(COC(N)=N1)c1cc(C#CC(C)(C)O)cnc1O2 (centres unmarked) [Example 114, 4,4′-(−2′-aminospiro[chromeno[2,3-b]pyridine-5,4′-[1,3]oxazole]-3,7-diyl)bis(2-methyl-3-butyn-2-ol)]
IC50 ([1]; Table III, IC50's in uM ranges): 0.1 to 1 µM | IC50 ([2]; Table III, IC50's in uM ranges): 0.1 to 1 µM

Cc1ccc2c(c1)Oc1ccc(-c3cccc(OC(F)(F)F)c3)cc1[C@]21COC(N)=N1 [Example 24, (4S)-6′-methyl-2′-(3-(trifluoromethoxy)phenyl)spiro[1,3-oxazole-4,9′-xanthen]-2-amine]
IC50 ([1]; Table 1, Aβ40, 24 h incubation): 1 to 5 µM | IC50 ([2]; Table 1): > 5 µM

CC(C)(C)CCc1cnc2c(c1)[C@]1(COC(N)=N1)c1cc(-c3cccnc3)ccc1O2 [compound 922]
IC50 ([1]; Table IV, class symbols): < 0.1 µM | IC50 ([2]; Table IV, class symbols): < 0.1 µM

CC(C)(O)COc1ccc2c(c1)[C@]1(COC(N)=N1)c1cc(-c3ccc(F)nc3)ccc1O2 [compound 222]
IC50 ([1]; Table III, IC50's in uM ranges): < 0.1 µM | IC50 ([2]; Table III, IC50's in uM ranges): < 0.1 µM

CC(C)Cn1cc(-c2ccc3c(c2)[C@]2(COC(N)=N2)c2cc(-c4cccnc4)ccc2O3)cn1 [compound 708]
IC50 [1]: 0.1 to 1 µM | IC50 [2]: < 0.1 µM

CC(C)Oc1ccc(-c2cc3c(cn2)Oc2ccc(-c4cccnc4)cc2[C@@]32COC(N)=N2)cc1 [compound 851]
IC50 ([1]; Table IV, class symbols): 0.1 to 1 µM | IC50 ([2]; Table IV, class symbols): < 0.1 µM

CC1(COc2cnc3c(c2)[C@]2(COC(N)=N2)c2cc(-c4cccc(F)c4F)ccc2O3)COC1 [compound 413]
IC50 [1, 3]: < 0.1 µM | IC50 [2, 4]: < 0.1 µM

NC1=N[C@@]2(CO1)c1cc(-c3cccnc3)ccc1Oc1cnc(C3CCCCC3)cc12 [compound 791]
IC50 [1]: 0.1 to 1 µM | IC50 [2]: < 0.1 µM

NC1=N[C@]2(CO1)c1cc(-c3ccc(C(F)(F)F)cc3)ccc1Oc1ccc(-c3cncnc3)cc12 [compound 811]
IC50 ([1]; Table IV, class symbols): 0.1 to 1 µM | IC50 ([2]; Table IV, class symbols): < 0.1 µM

CC(C)(C)C#Cc1ccc2c(c1)[C@@]1(COC(N)=N1)c1cc(-c3cccnc3)cnc1O2 [compound 895]
IC50 ([1]; Table IV, class symbols): < 0.1 µM | IC50 ([2]; Table IV, class symbols): < 0.1 µM

CC(C)(C)COc1ccc2c(c1)C1(COC(N)=N1)c1cc(NC(=O)c3ccc(Cl)cn3)ccc1O2 (centres unmarked) [compound 522]
IC50 ([1]; HEK cells): < 0.1 µM | IC50 [2]: < 0.1 µM

CC(C)(C)C#Cc1ccc2c(c1)[C@@]1(COC(N)=N1)c1cc(C#CC(C)(C)C)cnc1O2 [compound 897]
IC50 ([1]; Table IV, class symbols): 0.1 to 1 µM | IC50 ([2]; Table IV, class symbols): < 0.1 µM

NC1=N[C@]2(CO1)c1cc(/C=C/C(=O)O)ccc1Oc1ccc(-c3cccnc3)cc12 [compound 949]
IC50 [1]: > 5 µM | IC50 [2]: < 0.1 µM

Cc1nn(C)c(C)c1-c1ccc2c(c1)[C@@]1(COC(N)=N1)c1cc(OCC(C)(C)C)ccc1O2 [compound 213]
IC50 ([1]; Table III, IC50's in uM ranges): 1 to 5 µM | IC50 ([2]; Table III, IC50's in uM ranges): 0.1 to 1 µM

COc1ccc2c(c1)[C@]1(COC(N)=N1)c1cc(NC(=O)C(F)(F)F)ccc1O2 [compound 651]
IC50 ([1]; Table IV, class symbols): 1 to 5 µM | IC50 ([2]; Table IV, class symbols): 0.1 to 1 µM

COC1CN(c2ccc3c(c2)[C@]2(COC(N)=N2)c2cc(-c4cccnc4)ccc2O3)C1 [compound 604]
IC50 ([1]; Table IV, class symbols): < 0.1 µM | IC50 ([2]; Table IV, class symbols): < 0.1 µM

COc1ccc(F)c(-c2ccc3c(c2)C2(COC(N)=N2)c2cc(OC)ccc2O3)c1 (centres unmarked) [Example 15, 2′-(2-fluoro-5-methoxyphenyl)-7′-methoxyspiro[1,3-oxazole-4,9′-xanthen]-2-amine]
IC50 ([1]; Table 1, Aβ40, 24 h incubation): > 5 µM | IC50 ([2]; Table 1): 1 to 5 µM

CC(C)(C)COc1ccc2c(c1)[C@]1(COC(N)=N1)c1cc(-c3cncs3)ccc1O2 [compound 971]
IC50 [1]: 1 to 5 µM | IC50 [2]: < 0.1 µM

NC1=N[C@@]2(CO1)c1cc(-c3ccccc3F)ccc1Oc1cnc(C3=CCOCC3)cc12 [compound 426]
IC50 ([1]; HEK cells): 0.1 to 1 µM | IC50 [2]: < 0.1 µM

CN1CCN(c2cc3c(cn2)Oc2ccc(-c4cccnc4)cc2[C@@]32COC(N)=N2)CC1 [compound 444]
IC50 ([1]; HEK cells): < 0.1 µM | IC50 [2]: < 0.1 µM

NC1=N[C@]2(CO1)c1cc(C(=O)N3CCCC3)ccc1Oc1ccc(-c3cccnc3)cc12 [compound 945]
IC50 [1]: 0.1 to 1 µM | IC50 [2]: 0.1 to 1 µM

NC1=N[C@@]2(CO1)c1cc(-c3cccnc3)ccc1Oc1ccc(-c3csc(N4CCCC4)n3)cc12 [compound 624]
IC50 ([1]; Table IV, class symbols): 1 to 5 µM | IC50 ([2]; Table IV, class symbols): 0.1 to 1 µM

CC(C)(C)C#Cc1ccc2c(c1)[C@@]1(COC(N)=N1)c1cc(-c3cccnc3)cnc1O2 [compound 160]
IC50 ([1]; Table III, IC50's in uM ranges): < 0.1 µM | IC50 ([2]; Table III, IC50's in uM ranges): < 0.1 µM
